Measurements taken from patent US8492375B2, “1-benzoyl substituted diazepine derivatives as selective histamine H3 receptor agonists” (Glaxo Group Limited, priority 2003, dated 2013).
Structures can show the parent of a compound that is named as a salt.

Assays:
[1] = target: histamine H3 receptor (Homo sapiens, UniProt Q9Y5N1); assay: Histamine H3 functional antagonist assay ([35S]GTPγS binding, SPA, membranes of CHO K1 cells); details: pKb, antagonism of 0.3 μM histamine, membranes with human H3 receptor
Method: Ligated DNA was transformed into competent DH5α E. coli host bacterial cells and plated onto Luria Broth (LB) agar containing Zeocin™ (an antibiotic which allows the selection of cells expressing the sh ble gene which is present on pGene and pSwitch) at 50 μg ml^−1. Colonies containing the re-ligated plasmid were identified by restriction analysis. DNA for transfection into mammalian cells was prepared from 250 ml cultures of the host bacterium containing the pGeneH3 plasmid and isolated using a DNA preparation kit (Qiagen Midi-Prep) as per manufacturers guidelines (Qiagen).
CHO K1 cells previously transfected with the pSwitch regulatory plasmid (InVitrogen) were seeded at 2×10e6 cells per T75 flask in Complete Medium, containing Hams F12 (GIBCOBRL, Life Technologies) medium supplemented with 10% v/v dialysed foetal bovine serum, L-glutamine, and hygromycin (100 μg ml^−1), 24 hours prior to use. Plasmid DNA was transfected into the cells using Lipofectamine plus according to the manufacturers guidelines (InVitrogen). 48 hours post transfection cells were placed into complete medium supplemented with 500 μg ml^−1 Zeocin™
10-14 days post selection 10 nM Mifepristone (InVitrogen), was added to the culture medium to induce the expression of the receptor. […] Approximately 1×10e7 cells were examined for receptor expression by staining with a rabbit polyclonal antibody, 4a, raised against the N-terminal domain of the histamine H3 receptor, incubated on ice for 60 minutes, followed by two washes in sorting medium. […] Following two further washes with Sorting Medium, cells were filtered through a 50 μm Filcon™ (BD Biosciences) and then analysed on a FACS Vantage SE Flow Cytometer fitted with an Automatic Cell Deposition Unit. […] Positively stained cells were sorted as single cells into 96-well plates, containing Complete Medium containing 500 μg ml^−1 Zeocin™ and allowed to expand before reanalysis for receptor expression via antibody and ligand binding studies.
(ii) Membrane Preparation from Cultured Cells
All steps of the protocol are carried out at 4° C. and with pre-cooled reagents. The cell pellet is resuspended in 10 volumes of buffer A2 containing 50 mM N-2-hydroxyethylpiperazine-N′-2-ethanesulfonic acid (HEPES) (pH 7.40) supplemented with 10e-4M leupeptin (acetyl-leucyl-leucyl-arginal; Sigma L2884), 25 μg/ml bacitracin (Sigma B0125), 1 mM ethylenediamine tetra-acetic acid (EDTA), 1 mM phenylmethylsulfonyl fluoride (PMSF) and 2×10e-6M pepstain A (Sigma). The cells are then homogenised by 2×15 second bursts in a 1 liter glass Waring blender, followed by centrifugation at 500 g for 20 minutes. The supernatant is then spun at 48,000 g for 30 minutes. The pellet is resuspended in 4 volumes of buffer A2 by vortexing for 5 seconds, followed by homogenisation in a Dounce homogeniser (10-15 strokes). At this point the preparation is aliquoted into polypropylene tubes and stored at −70° C.
(II) Histamine H3 Functional Antagonist Assay
The plate is then incubated on a shaker at room temperature for 30 minutes followed by centrifugation for 5 minutes at 1500 rpm. The plate is read between 3 and 6 hours after completion of centrifuge run in a Wallac Microbeta counter on a 1 minute normalised tritium count protocol. Data is analysed using a 4-parameter logistic equation. Basal activity used as minimum i.e. histamine not added to well.

[2] = target: T1, human H1 receptor (Homo sapiens, UniProt P35367); assay: Histamine H1 functional antagonist assay (FLIPR, histamine induced increase in fluorescence); type: cell-based; details: Chinese hamster ovary cells stably expressing the human H1 receptor; read-out: antagonism pKb, histamine H1 functional antagonist assay (converted)
T1 construct: expressed in transfected cells
Method: (iii) Generation of Histamine H1 Cell Line
The human H1 receptor was cloned using known procedures described in the literature [Biochem. Biophys. Res. Commun.
(III) Histamine H1 Functional Antagonist Assay
Compounds are assayed in a black walled clear bottom 384-well plate with cells seeded at 10000 cells/well. […] Each well is treated with 10 μl of a solution of FLUO4AM (10 μM in Tyrodes buffer at pH 7.40) and plates are then incubated for 60 minutes at 37° C. Wells are then washed with Tyrodes buffer using a EMBLA cell washer system, leaving 400 buffer in each well, and then treated with 100 of test compound in Tyrodes buffer. Each plate is incubated for 30 min to allow equilibration of the test compound with the receptor. Each well is then treated with 100 of histamine solution in Tyrodes buffer.
Functional antagonism is indicated by a suppression of histamine induced increase in fluorescence, as measured by the FLIPR system (Molecular Devices). By means of concentration effect curves, functional potencies are determined using standard pharmacological mathematical analysis.

Sequence of histamine H3 receptor (Q9Y5N1 whole entry): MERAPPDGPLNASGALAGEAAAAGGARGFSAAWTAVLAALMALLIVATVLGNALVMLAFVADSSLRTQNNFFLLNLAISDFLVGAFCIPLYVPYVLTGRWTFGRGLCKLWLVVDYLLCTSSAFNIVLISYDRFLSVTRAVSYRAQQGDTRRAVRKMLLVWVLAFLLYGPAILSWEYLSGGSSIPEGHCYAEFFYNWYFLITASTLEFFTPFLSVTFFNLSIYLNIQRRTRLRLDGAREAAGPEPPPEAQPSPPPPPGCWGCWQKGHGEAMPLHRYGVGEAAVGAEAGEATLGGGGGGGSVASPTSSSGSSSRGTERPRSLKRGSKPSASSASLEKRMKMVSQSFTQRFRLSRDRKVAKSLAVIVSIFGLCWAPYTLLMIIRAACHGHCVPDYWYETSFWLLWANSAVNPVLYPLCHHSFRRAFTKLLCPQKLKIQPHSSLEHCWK
T1 sequence (P35367 whole entry): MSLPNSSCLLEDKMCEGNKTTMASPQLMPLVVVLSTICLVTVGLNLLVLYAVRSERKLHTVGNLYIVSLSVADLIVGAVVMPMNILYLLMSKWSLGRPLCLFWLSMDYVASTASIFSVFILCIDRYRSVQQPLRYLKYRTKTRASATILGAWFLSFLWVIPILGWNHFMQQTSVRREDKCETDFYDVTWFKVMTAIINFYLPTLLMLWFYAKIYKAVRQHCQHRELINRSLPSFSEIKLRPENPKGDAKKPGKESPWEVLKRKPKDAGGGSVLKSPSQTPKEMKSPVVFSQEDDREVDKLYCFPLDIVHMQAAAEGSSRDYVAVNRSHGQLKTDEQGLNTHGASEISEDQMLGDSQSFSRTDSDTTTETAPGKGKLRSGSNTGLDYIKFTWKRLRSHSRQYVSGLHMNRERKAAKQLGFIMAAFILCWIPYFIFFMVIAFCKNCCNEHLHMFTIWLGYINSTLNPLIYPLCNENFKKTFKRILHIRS

SMILES | Kb [1] | Kb [2]
CC(=O)c1ccc(-c2ccc(C(=O)N3CCCN(C4CCC4)CC3)cc2)cc1 [Example 2, 1-{4′-[(4-Cyclobutylhexahydro-1H-1,4-diazepin-1-yl)carbonyl]-4-biphenylyl}ethanone hydrochloride] | < 0.316 nM | > 1000 nM
N#Cc1ccc(-c2ccc(C(=O)N3CCCN(C4CCC4)CC3)cc2)nc1 [Example 12, 6-{4-[(4-Cyclobutylhexahydro-1H-1,4-diazepin-1-yl)carbonyl]phenyl}-3-cyanopyridine hydrochloride] | < 0.316 nM | > 1000 nM
O=C(c1ccc(-c2ncco2)cc1)N1CCCN(C2CCC2)CC1 [Example 56, 1-Cyclobutyl-4-{[4-(1,3-oxazol-2-yl)phenyl]carbonyl}hexahydro-1H-1,4-diazepine hydrochloride] | ≤ 1 nM | –
N#Cc1ccc(-c2ccc(C(=O)N3CCCN(C4CCC4)CC3)cc2)cn1 [Example 14, 5-{4-[(4-Cyclobutylhexahydro-1H-1,4-diazepin-1-yl)carbonyl]phenyl}-2-cyanopyridine hydrochloride] | ≤ 1 nM | > 1000 nM
N#Cc1ccc(-c2ccc(C(=O)N3CCCN(C4CCC4)CC3)cc2)cc1 [Example 1, 4′-[(4-Cyclobutylhexahydro-1H-1,4-diazepin-1-yl)carbonyl]-4-biphenylcarbonitrile hydrochloride] | < 0.316 nM | > 1000 nM
CNC(=O)c1ccc(-c2ccc(C(=O)N3CCCN(C4CCC4)CC3)cc2)cn1 [Example 13, 5-{4-[(4-Cyclobutylhexahydro-1H-1,4-diazepin-1-yl)carbonyl]phenyl}-N-methyl-2-pyridinecarboxamide hydrochloride] | ≤ 1 nM | > 1000 nM
CNC(=O)c1ccc(-c2ccc(C(=O)N3CCCN(C(C)C)CC3)cc2)cn1 [Example 16, N-Methyl-5-(4-{[4-(1-isopropyl)hexahydro-1H-1,4-diazepin-1-yl]carbonyl}phenyl)-2-pyridinecarboxamide hydrochloride] | ≤ 1 nM | > 1000 nM
O=C(c1ccc(-c2ccc(C(F)(F)F)nn2)cc1)N1CCCN(C2CCC2)CC1 [Example 22, 1-Cyclobutyl-4-({4-[6-(trifluoromethyl)-3-pyridazinyl]phenyl}carbonyl)hexahydro-1H-1,4-diazepine hydrochloride] | ≤ 1 nM | > 1000 nM
O=C(c1ccc(-c2cnc(C(F)(F)F)nc2)cc1)N1CCCN(C2CCC2)CC1 [Example 23, 1-Cyclobutyl-4-({4-[2-(trifluoromethyl)-5-pyrimidinyl]phenyl}carbonyl)hexahydro-1H-1,4-diazepine hydrochloride] | ≤ 1 nM | > 1000 nM
CC(C)N1CCCN(C(=O)c2ccc(OC3CCOCC3)cc2)CC1 [Example 10, 1-(Isopropyl)-4-{[4-(tetrahydro-2H-pyran-4-yloxy)phenyl]carbonyl}hexahydro-1H-1,4-diazepine hydrochloride] | – | > 1000 nM

Second part, the molecule after the results:

Kb [1] | Kb [2] | SMILES
< 0.316 nM | – | Cc1noc(-c2ccc(C(=O)N3CCCN(C4CCC4)CC3)cc2)n1 [Example 58, 1-Cyclobutyl-4-{[4-(3-methyl-1,2,4-oxadiazol-5-yl)phenyl]carbonyl}hexahydro-4H-1,4-diazepine hydrochloride]
≤ 1 nM | > 1000 nM | O=C(c1ccc(-n2cnnn2)cc1)N1CCCN(C2CCC2)CC1 [Example 7, 1-Cyclobutyl-4-{[4-tetrazol-1-yl)phenyl]carbonyl}hexahydro-1H-1,4-diazepine hydrochloride]
≤ 1 nM | > 1000 nM | O=C(c1ccc(N2CCS(=O)(=O)CC2)cc1)N1CCCN(C2CCC2)CC1 [Example 9, 1-Cyclobutyl-4-{[4-(1,1-dioxido-4-thiomorpholinyl)phenyl]carbonyl}hexahydro-1H-1,4-diazepine hydrochloride]
≤ 1 nM | > 1000 nM | O=C(c1ccc(-c2nc(-c3ccc(F)cc3)cs2)cc1)N1CCCN(C2CCC2)CC1 [Example 8, 1-Cyclobutyl-4-({4-[4-(4-fluorophenyl)-1,3-thiazol-2-yl]phenyl}carbonyl) hexahydro-1H-1,4-diazepine hydrochloride]
– | > 1000 nM | CC(C)N1CCCN(C(=O)c2ccc(-c3ccc(C#N)nc3)cc2)CC1 [Example 15, 5-(4-{[4-(1-Isopropyl)hexahydro-1H-1,4-diazepin-1-yl]carbonyl}phenyl)-2-cyanopyridine hydrochloride]
< 0.316 nM | > 1000 nM | O=C(c1ccc(-c2ccc(C(F)(F)F)nc2)cc1)N1CCCN(C2CCC2)CC1 [Example 11, 1-Cyclobutyl-4-({4-[6-(trifluoromethyl)-3-pyridinyl]phenyl}carbonyl)hexahydro-1H-1,4-diazepine hydrochloride]
